In patent publication US20230374103A1, “Wnt SIGNALING PATHWAY INHIBITOR” (OSAKA UNIVERSITY, priority 2020, published 2023):
Residues, ends and D or L forms follow the SMILES beside them.

Key:
[1] = test system: Wnt signaling activation by RSPO; assay: Wnt signaling inhibition test (β-catenin responsive element luciferase reporter); format: cell-based; settings: HEK293 reporter cells; 50 ng/mL wnt3a + 20 ng/mL RSPO1/2/3; 24 hours; peptide tested MHP1-7 (FIG. 2)
Experimental: HEK293 cells expressing luciferase under the control of β-catenin responsive element were plated on a 96 -well plastic plate (1×10^4 cells/well) and incubated in the presence or absence of 50 ng/mL of recombinant mouse wnt3a (R&D System, #1324-WN) and recombinant human RSPO1 (R&D System, #4645-RS), recombinant human RSPO2 (PeproTech, #120-43), or recombinant human RSPO3 (PeproTech, #120-44). When these were added at the same time as RANKL peptide, 50 ng/mL of recombinant mouse wnt3a and 20 ng/mL of RSPO1/2/3 were used. After incubation for 24 hours, luciferase activity was analyzed using a luciferase assay system (Promega) and a microplate luminometer (Centro XS3 LB960; Berthold Technologies). The protein concentration of each sample was measured using Takara Bradford Protein Assay Kit (Takara Bio Inc.). The results of luciferase activity were normalized to the protein concentration of each sample.

binding of LGR4 to RSPO1 = molecular target: T1, binding of LGR4 to RSPO1 (Homo sapiens, UniProt Q9BXB1); assay: Competitive binding analysis of LGR4 and biotinylated RSPO1 (Flag-LGR4 transfected HEK293 cells, immunoprecipitation); settings: 50 ng/mL biotinylated RSPO1, 2 hours, MHP1-7 (FIG. 4)
T1 construct: host or cells: HEK293
T1 sequence (Q9BXB1 25-951): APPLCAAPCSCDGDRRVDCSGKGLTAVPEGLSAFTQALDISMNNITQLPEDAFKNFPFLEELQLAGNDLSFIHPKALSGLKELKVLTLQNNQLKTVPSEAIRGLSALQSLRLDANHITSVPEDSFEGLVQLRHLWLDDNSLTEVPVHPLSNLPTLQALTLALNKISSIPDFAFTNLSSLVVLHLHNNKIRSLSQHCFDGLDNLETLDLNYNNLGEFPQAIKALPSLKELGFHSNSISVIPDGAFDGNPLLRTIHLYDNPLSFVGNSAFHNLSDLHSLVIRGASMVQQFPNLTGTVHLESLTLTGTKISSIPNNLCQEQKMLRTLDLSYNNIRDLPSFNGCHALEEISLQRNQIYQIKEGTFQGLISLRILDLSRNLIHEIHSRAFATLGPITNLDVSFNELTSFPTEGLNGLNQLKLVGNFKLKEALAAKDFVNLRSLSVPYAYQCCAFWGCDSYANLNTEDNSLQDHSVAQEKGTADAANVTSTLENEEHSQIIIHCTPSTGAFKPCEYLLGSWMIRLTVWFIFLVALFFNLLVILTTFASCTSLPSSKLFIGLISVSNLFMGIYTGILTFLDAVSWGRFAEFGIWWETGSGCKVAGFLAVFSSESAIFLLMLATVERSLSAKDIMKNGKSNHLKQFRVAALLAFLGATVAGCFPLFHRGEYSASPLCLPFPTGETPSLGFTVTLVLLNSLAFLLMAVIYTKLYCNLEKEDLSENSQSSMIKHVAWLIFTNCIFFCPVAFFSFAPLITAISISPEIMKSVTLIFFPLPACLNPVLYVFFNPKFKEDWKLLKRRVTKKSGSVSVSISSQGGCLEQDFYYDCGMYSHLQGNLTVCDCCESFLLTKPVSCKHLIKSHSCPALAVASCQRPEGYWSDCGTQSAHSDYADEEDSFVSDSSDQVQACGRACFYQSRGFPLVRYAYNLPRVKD
Experimental: HEK293 cells were incubated with 100 μg/mL of RANKL peptide or biotinylated RANKL peptide for 30 minutes, followed by immunoprecipitation. For competitive binding analysis, HEK293 cells were transfected with a Flag-tagged LGR4 expression plasmid (OriGene Technologies) for 48 hours, and incubated for 2 hours in the presence of 50 ng/mL L of recombinant human biotinylated RSPO1 (R&D System, #BT4645) and RANKL peptide. For immunoprecipitation, the cells were washed twice with cold PBS and dissolved in a lysis buffer (50 mM Tris-HCL, pH 7.4, 150 mM NaCl, 5 mM EDTA, 0.5% NP40, 10% glycerol and protease inhibitor cocktail (Roche)). The sample was centrifuged at 16,000 g for 10 minutes. The supernatant was collected, and the protein concentration was determined. Immunoprecipitation from samples containing equal amounts of protein was performed at 4° C. overnight using high-capacity streptavidin agarose (Thermo Fisher Scientific or Anti-FLAG M2 Affinity Gel (Sigma-Aldrich), followed by washing twice with a lysis buffer, and elution with 2× Laemmli Sample Buffer at 37° C. for 30 minutes before Western blotting. The blotted membrane was incubated with the primary antibody at 4° C. overnight, washed with TBS containing 0.1% Tween-20, then incubated with the HRP-conjugated secondary antibody at room temperature for 1 hour, and then incubated with Chemi-Lumi One L (Nacalai Tesque). […]

[2] = test system: bleomycin-induced scleroderma model; assay: Early administration test in bleomycin-induced scleroderma model; format: in vivo, C57BL6/J mice; settings: 800 μg/mouse i.p. 5 days/week for 14 days in parallel with bleomycin
Experimental: As test animals, C57BL6/J mice (female, 8 weeks old) were prepared. 200 μg/mouse of bleomycin was subcutaneously injected at a frequency of 5 days/week for 14 days, and in parallel with this, 800 μg/mouse of saline or RANKL peptide was intraperitoneally administered at a frequency of 5 days/week for 14 days. The body weight was measured periodically during the dosing period. The mice were sacrificed 14 days after the start of administration and the skin tissue of the bleomycin-administered portion was stained with Masson's trichrome to evaluate fibrosis. Further, the expression of collagen gene mRNA, which is a fibrosis index, in the skin was evaluated.

[3] = test system: bleomycin-induced scleroderma model; assay: Late administration test in bleomycin-induced scleroderma model; format: in vivo, C57BL6/J mice; settings: 800 μg/mouse i.p. 5 days/week for 14 days after 14 days of bleomycin
Experimental: As test animals, C57BL6/J mice (female, 8 weeks were prepared. 200 μg/mouse of bleomycin was subcutaneously injected at a frequency of 5 days/week for 14 days. Subsequently, 800 μg/mouse of saline or RANKL peptide was intraperitoneally administered at a frequency of 5 days/week for 14 days. The nice were sacrificed after 14 days (28 days after the start of bleomycin administration), and the skin tissue of the bleomycin-administered portion was stained with Masson's trichrome to evaluate fibrosis. Further, the expression of collagen gene mRNA, which is a fibrosis index, in the skin was evaluated.

[4] = test system: bleomycin-induced pulmonary fibrosis model; assay: Administration test in bleomycin-induced pulmonary fibrosis model; format: in vivo, C57BL6/J mice; settings: 800 μg/mouse i.p. once, bleomycin intratracheally, 14 days
Experimental: As test animals, C57BL6/J mice (female, 8 weeks old) were prepared. Saline or RANKL peptide (800 μg/mouse) was administered intraperitoneally, and immediately thereafter, saline or bleomycin (0.05 μg/mouse) was directly administered intratracheally. The mice were sacrificed 14 days after administration, the lung weight and body weight were measured, and the lung weight/body weight ratio was determined. In addition, the lung tissue, was stained with Masson's trichrome, and Masson's trichrome score evaluation (0: normal, 1: fibrotic lesions predominantly at the margin of the lung, 2: marginal or global multifocal fibrotic lesions, 3: fibrotic lesions in approximately ⅓ of the area, 4: fibrotic lesions accounting for ⅔ or more of the area) was performed based on the stained images. Further, the expression of fibrosis marker gene mRNA in lung tissue was evaluated.

A549 cells [5] = assay: Proliferation assay (MTT) of A549 cells; format: cell-based, human
Experimental: The influence RANKL peptide on the proliferation of A549 cells (human lung alveolar basal epithelial cells: high expression of both LGR4 and RSPO3 was confirmed) was examined. Specifically, the following procedure was performed. MHP1 was administered at 1 ng/ml to 100 μg/ml to A549 cells, and the cell viability was calculated by MTT assay after 40 hours.

A549 cells [6] = assay: Migration/invasion assay of A549 cells (Boyden chamber / Matrigel Invasion chamber); format: cell-based, human
Experimental: The influence of RANKL peptide on the migration and invasion of A549 cells was examined. Specifically, the following procedure was performed. A chamber of an 8-μm polycarbonate membrane filter (Neuro Probe) was installed in the upper compartment of a Boyden chamber (48-well Chamber, Neuro Probe), A549 cells were seeded in serum-free DMEM containing MHP1-AcN, and DMEM containing 10% FBS was placed in the lower compartment, followed by incubation at 37° C. for 15 hours. In the invasion assay, the upper compartment was Matrigel Invasion chamber (Corning Life Science). Similar A549 cells were seeded in serum-free medium containing MHP1-AcN, and DEM containing 10% FBS was placed in the lower compartment. Cells adhering to the upper surface of each upper compartment were detached, the lower surface was stained with Diff-Quick (Sysmex), and the number of cells was counted under a microscope.

A549 cell xenograft = A549 cell xenograft model; format: in vivo, BALB/cAJcl-nu/nu; settings: 600 μg/mouse every day, up to 49 days
Experimental: The influence of RANKL peptide on cancer in an A549 cell xenograft model was examined. Specifically, the following procedure was performed. 2×10^6 cells were administered subcutaneously to BALB/cAJcl-nu/nu […]. After one day, 600 μg/mouse of MHP1 was administered every day, and the tumor size was measured up to 49 days. Further, the tumor weight was measured.

smad2/3 = smad2/3 activation induced by TGF-β in MRC-5 cells (WB); format: cell-based; settings: 24 hours pretreatment, 5 ng/ml TGFβ, 10 minutes, MHP1-AcN (FIG. 17)
Experimental: The influence of RANEL peptide on smad2/3 activation induced by TGF-β was examined. Specifically, the following procedure was performed. After pretreatment of MRC-5 cells with MHP1 for 24 hours, 5 ng/ml of TGFβ was added to the medium, the medium was collected after 10 minutes, and WB was performed.

[7] = test system: α-SMA and Colla1 expression (EMT); assay: Expression of α-SMA and Colla1 induced by TGF-β in MRC-5 cells (real-time RT-PCR); format: cell-based
Experimental: The influence of RANKL peptide on the expression of α-SMA and Colla1 induced by TGF-β was examined. Specifically, the following procedure was performed. After pretreatment of MHP1 with MRC-5 cells for 24 hours, 2 ng/m/ of TGFβ was added, the cells were collected after 24 hours, and mRNA levels were determined by real-time RT-PCR.

[8] = MRC-5 cells, 24 hours pretreatment, TGFβ 24 hours, 10, 30, 100 μg/ml MHP1-AcN (FIG. 19)

Wnt signaling activation by RSPO (luciferase activity normalized to protein concentration) [1]: inhibited
RSPO1 in the total cell lysate and the lysate immunoprecipitated with FLAG (Streptavidin-HRP) (binding of LGR4 to RSPO1): reduced
binding of LGR4 to RSPO1 (binding of LGR4 to RSPO1): inhibits
influence on the degree of weight gain (A549 cell xenograft): not confirmed
SMILES: CC[C@H](C)[C@H](NC(=O)[C@H](CO)NC(=O)[C@@H](NC(=O)[C@H](CCCCN)NC(=O)[C@@H](NC(=O)[C@@H](NC(=O)[C@H](Cc1ccc(O)cc1)NC(=O)[C@@H](NC(=O)[C@H](CCSC)NC(=O)[C@H](CC(C)C)NC(C)=O)C(C)C)C(C)C)C(C)C)[C@@H](C)O)C(=O)N[C@@H](CCCCN)C(=O)N[C@H](C(=O)N1CCC[C@H]1C(=O)N[C@@H](CO)C(=O)N[C@@H](CO)C(=O)N[C@@H](Cc1c[nH]cn1)C(=O)N[C@@H](CC(N)=O)C(=O)N[C@@H](CC(C)C)C(=O)N[C@@H](CCSC)C(=O)N[C@@H](CCCCN)C(=O)NCC(=O)NCC(=O)N[C@@H](CO)C(=O)N[C@H](C(=O)N[C@@H](CCCCN)C(=O)N[C@@H](CC(N)=O)C(=O)N[C@@H](Cc1c[nH]c2ccccc12)C(=O)N[C@@H](CO)C(=O)NCC(=O)N[C@@H](CC(N)=O)C(N)=O)[C@@H](C)O)[C@@H](C)CC [MHP1-7] (Ac-LMVYVVKTSIKIPSSHNLMKGGSTKNWSGN-NH2)
skin thickening and fibrosis (Masson's trichrome, dermis thickness) ([2]; MHP1-7 (FIG. 5)): inhibited
expression of the collagen gene mRNA in skin ([2]; MHP1-7 (FIG. 6)): inhibited
weight loss (body weight) ([2]; MHP1-7 (FIG. 7)): suppressed
skin thickening and fibrosis (Masson's trichrome, dermis thickness) ([3]; MHP1-7 (FIG. 8)): inhibited
expression of the collagen gene mRNA (Colla1, Colla2) in skin ([3]; MHP1-7 (FIGS. 9, 10)): inhibited
lung weight gain ([4]; MHP1-7 (FIG. 11)): suppressed
weight loss (body weight) ([4]; MHP1-7 (FIG. 11)): suppressed
expression of the fibrosis marker gene mRNA in lung tissue ([4]; MHP1-7 (FIG. 12)): inhibited
lung tissue fibrosis (Masson's trichrome score) ([4]; MHP1-7 (FIG. 13)): inhibited
proliferation of lung cancer cells (cell viability, MTT) (A549 cells [5]; A549 cells, 1 ng/ml to 100 μg/ml, 40 hours, MHP1-AcN (FIG. 14)): inhibited
Wnt signaling pathway in A549 cells (A549 cells [5]; along with the inhibition of the proliferation): inhibited
migration of lung cancer cells (number of cells) (A549 cells [6]; A549 cells, Boyden chamber, 15 hours, MHP1-AcN (FIG. 15)): inhibited
invasion of lung cancer cells (number of cells) (A549 cells [6]; A549 cells, Matrigel Invasion chamber, MHP1-AcN (FIG. 15)): inhibited
Wnt signaling pathway in A549 cells (A549 cells [6]; migration/invasion test): inhibited
growth of cancer (tumor volume) (A549 cell xenograft; MHP1-AcN (FIG. 16)): inhibited
smad2/3 activation induced by TGF-β (smad2/3): inhibited
expression of Colla1 induced by TGF-β [7, 8]: inhibited
expression of α-SMA (ACTA2) induced by TGF-β [7, 8]: inhibited
EMT (epithelial-mesenchymal transition) ([7]; concluded from α-SMA and Colla1 expression in MRC-5 cells): inhibited
